According to PubChem BioAssay (NCI):
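Assay format: 96-well plates, 48-hour exposure. GI50 = concentration required for 50% inhibition of growth. At the TGI there is no net growth.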

What follows are compounds tested on SF-268 CNS (assay: DTP human tumour cell line panel, 48 h).

First: CCn1c(O)c(/C=N/NC(=O)C(C)c2ccc(CC(C)C)cc2)sc1=S (configuration not stated)
Second: COC(=O)c1ccc2c(c1)C(=O)c1c-2n(CCCN=[N+]=[N-])c(=O)c2cc(OC)c(OC)cc12
The GI50 of the first is lower: 1.63 µM for the first, > 100 µM for the second.

First: C[C@@H]1C[C@@H]([C@@H](CC2CC(=O)NC(=O)C2)OC(=O)CC(=O)c2ccccc2)C(=O)[C@@H](C)C1
Second: CCOC(=O)Nc1cc2c(c(N)n1)N=C(c1ccccc1)CO2
The GI50 of the first is 2.8-fold higher: 0.908 µM for the first, 0.325 µM for the second.

First: Cc1nc(Nc2cccnc2)sc1C(=O)/C=C/c1ccc(F)cc1
Second: O=c1oc2ccc(-c3ccc(F)cc3F)cc2c(=O)n1-c1cccc(C(F)(F)F)c1
The GI50 of the first is 2.9-fold higher: 3.57 µM for the first, 1.23 µM for the second.

Going from `N=c1c2c(-c3ccccc3)c(-c3ccccc3)n(Cc3ccccc3)c2ncn1C1CCC(O)CC1` (configuration not stated) to `O=c1c(F)cn(Cc2ccc(C34CC5CC(CC(C5)C3)C4)c(O)c2)c(=O)n1Cc1ccc(C23CC4CC(CC(C4)C2)C3)c(O)c1`, the GI50 rises from 0.118 µM to 12.8 µM (110-fold).

`CCn1c(O)c(/C=N/NC(=O)C(C)c2ccc(CC(C)C)cc2)sc1=S` (configuration not stated) and `COC(=O)c1ccc2c(c1)C(=O)c1c-2n(CCCN=[N+]=[N-])c(=O)c2cc(OC)c(OC)cc12` cannot be ordered by TGI: > 43.4 µM for the first, > 100 µM for the second.

Going from `C[C@@H]1C[C@@H]([C@@H](CC2CC(=O)NC(=O)C2)OC(=O)CC(=O)c2ccccc2)C(=O)[C@@H](C)C1` to `CCOC(=O)Nc1cc2c(c(N)n1)N=C(c1ccccc1)CO2`, the TGI falls from > 32 µM to 15.8 µM.

Compared with `Cc1nc(Nc2cccnc2)sc1C(=O)/C=C/c1ccc(F)cc1`, `O=c1oc2ccc(-c3ccc(F)cc3F)cc2c(=O)n1-c1cccc(C(F)(F)F)c1` is 3.9-fold lower in TGI: 31.9 µM for the first, 8.21 µM for the second.

Going from `N=c1c2c(-c3ccccc3)c(-c3ccccc3)n(Cc3ccccc3)c2ncn1C1CCC(O)CC1` (configuration not stated) to `O=c1c(F)cn(Cc2ccc(C34CC5CC(CC(C5)C3)C4)c(O)c2)c(=O)n1Cc1ccc(C23CC4CC(CC(C4)C2)C3)c(O)c1`, the TGI rises from 15 µM to 32.6 µM (2.2-fold).

With `CC1CC2CCCC(O)=C2C(=O)O1` (configuration not stated) the TGI was > 100 µM.

These compounds were tested on SF-295 CNS (assay: DTP human tumour cell line panel, 48 h).

Compared with `CC1(C)OC2C(CO[Si](C)(C)C(C)(C)C)OC(n3c(I)c(C#C[Si](C)(C)C)c(=O)[nH]c3=O)C2O1` (configuration not stated), `C[C@@H]1C[C@@H]([C@@H](CC2CC(=O)NC(=O)C2)OC(=O)CC(=O)c2ccccc2)C(=O)[C@@H](C)C1` is lower in GI50: > 100 µM for the first, 0.224 µM for the second.

Compared with `CN(C)CC[C@H](CSc1ccccc1)Nc1ccc(S(=O)(=O)NC(=O)c2ccc(N3CCN(Cc4ccccc4-c4ccc(Cl)cc4)CC3)cc2)cc1[N+](=O)[O-]`, `CN(C)C1CCN(C(=O)c2ccc(NC(=O)Nc3ccc(-c4nc(N5CCOCC5)c5cccn5n4)cc3)cc2)CC1` is 50-fold lower in GI50: 3.6 µM for the first, 0.0719 µM for the second.

First: COc1ccc(-c2ccc(=O)oc2C#Cc2cc(OC)c(OC)c(OC)c2)cc1O
Second: COC(=O)c1ccc2c(c1)C(=O)c1c-2n(CCCN=[N+]=[N-])c(=O)c2cc(OC)c(OC)cc12
The GI50 of the first is lower: 0.495 µM for the first, > 100 µM for the second.

Going from `O=C(/C=C/c1ccc[nH]1)c1ccc(-n2ccc(C(F)(F)F)n2)cc1` to `Cc1nc(Nc2cccnc2)sc1C(=O)/C=C/c1ccc(F)cc1`, the GI50 falls from > 25.8 µM to 3.09 µM.

First: O=C(c1ccco1)c1c(C(F)(F)F)nc2ccc(Cl)cc2[n+]1[O-]
Second: O=c1oc2ccc(-c3ccc(F)cc3F)cc2c(=O)n1-c1cccc(C(F)(F)F)c1
The GI50 of the first is higher: > 100 µM for the first, 1.78 µM for the second.

Compared with `COc1ccc(-c2nnc3n(C)c(=O)c4ccccc4n23)cc1N`, `COc1ccc2nc3ccccc3c(NCc3ccc(F)cc3)c2c1` is 32-fold higher in GI50: 0.0499 µM for the first, 1.58 µM for the second.

First: COc1cc(N=Nc2ccc(O)c3ncccc23)c2ncccc2c1
Second: CCOC(=O)Nc1cc2c(c(N)n1)N=C(c1ccccc1)CO2
The GI50 of the first is 83-fold higher: 18.5 µM for the first, 0.224 µM for the second.

First: CCn1c(O)c(/C=N/NC(=O)C(C)c2ccc(CC(C)C)cc2)sc1=S (configuration not stated)
Second: O=c1c(F)cn(Cc2ccc(C34CC5CC(CC(C5)C3)C4)c(O)c2)c(=O)n1Cc1ccc(C23CC4CC(CC(C4)C2)C3)c(O)c1
The GI50 of the first is 50-fold lower: 0.337 µM for the first, 16.9 µM for the second.

`N=c1c2c(-c3ccccc3)c(-c3ccccc3)n(Cc3ccccc3)c2ncn1C1CCC(O)CC1` (configuration not stated) showed a GI50 of 0.0836 µM.

Going from `CC1(C)OC2C(CO[Si](C)(C)C(C)(C)C)OC(n3c(I)c(C#C[Si](C)(C)C)c(=O)[nH]c3=O)C2O1` (configuration not stated) to `C[C@@H]1C[C@@H]([C@@H](CC2CC(=O)NC(=O)C2)OC(=O)CC(=O)c2ccccc2)C(=O)[C@@H](C)C1`, the TGI falls from > 100 µM to 12.3 µM.

First: CN(C)CC[C@H](CSc1ccccc1)Nc1ccc(S(=O)(=O)NC(=O)c2ccc(N3CCN(Cc4ccccc4-c4ccc(Cl)cc4)CC3)cc2)cc1[N+](=O)[O-]
Second: CN(C)C1CCN(C(=O)c2ccc(NC(=O)Nc3ccc(-c4nc(N5CCOCC5)c5cccn5n4)cc3)cc2)CC1
The TGI of the first is higher: > 100 µM for the first, 0.512 µM for the second.

`COc1ccc(-c2ccc(=O)oc2C#Cc2cc(OC)c(OC)c(OC)c2)cc1O` and `COC(=O)c1ccc2c(c1)C(=O)c1c-2n(CCCN=[N+]=[N-])c(=O)c2cc(OC)c(OC)cc12` cannot be ordered by TGI: > 100 µM for the first, > 100 µM for the second.

Compared with `O=C(/C=C/c1ccc[nH]1)c1ccc(-n2ccc(C(F)(F)F)n2)cc1`, `Cc1nc(Nc2cccnc2)sc1C(=O)/C=C/c1ccc(F)cc1` is lower in TGI: > 100 µM for the first, 18.2 µM for the second.

Compared with `O=C(c1ccco1)c1c(C(F)(F)F)nc2ccc(Cl)cc2[n+]1[O-]`, `O=c1oc2ccc(-c3ccc(F)cc3F)cc2c(=O)n1-c1cccc(C(F)(F)F)c1` is lower in TGI: > 100 µM for the first, 4.14 µM for the second.

Going from `COc1ccc(-c2nnc3n(C)c(=O)c4ccccc4n23)cc1N` to `COc1ccc2nc3ccccc3c(NCc3ccc(F)cc3)c2c1`, the TGI falls from > 100 µM to 6.48 µM.

Compared with `COc1cc(N=Nc2ccc(O)c3ncccc23)c2ncccc2c1`, `CCOC(=O)Nc1cc2c(c(N)n1)N=C(c1ccccc1)CO2` is lower in TGI: > 100 µM for the first, 14.2 µM for the second.

Compared with `CCn1c(O)c(/C=N/NC(=O)C(C)c2ccc(CC(C)C)cc2)sc1=S` (configuration not stated), `O=c1c(F)cn(Cc2ccc(C34CC5CC(CC(C5)C3)C4)c(O)c2)c(=O)n1Cc1ccc(C23CC4CC(CC(C4)C2)C3)c(O)c1` is lower in TGI: > 34.7 µM for the first, 32.5 µM for the second.

Compared with `N=c1c2c(-c3ccccc3)c(-c3ccccc3)n(Cc3ccccc3)c2ncn1C1CCC(O)CC1` (configuration not stated), `CC1CC2CCCC(O)=C2C(=O)O1` (configuration not stated) is higher in TGI: 1.45 µM for the first, > 100 µM for the second.

The compounds below were run on DU-145 prostate (assay: DTP human tumour cell line panel, 48 h).

Compared with `CC1(C)OC2C(CO[Si](C)(C)C(C)(C)C)OC(n3c(I)c(C#C[Si](C)(C)C)c(=O)[nH]c3=O)C2O1` (configuration not stated), `C[C@@H]1C[C@@H]([C@@H](CC2CC(=O)NC(=O)C2)OC(=O)CC(=O)c2ccccc2)C(=O)[C@@H](C)C1` is 17-fold lower in GI50: 13 µM for the first, 0.769 µM for the second.

Going from `CN(C)CC[C@H](CSc1ccccc1)Nc1ccc(S(=O)(=O)NC(=O)c2ccc(N3CCN(Cc4ccccc4-c4ccc(Cl)cc4)CC3)cc2)cc1[N+](=O)[O-]` to `CN(C)C1CCN(C(=O)c2ccc(NC(=O)Nc3ccc(-c4nc(N5CCOCC5)c5cccn5n4)cc3)cc2)CC1`, the GI50 falls from 23 µM to 0.0335 µM (690-fold).

Going from `COc1ccc(-c2ccc(=O)oc2C#Cc2cc(OC)c(OC)c(OC)c2)cc1O` to `COC(=O)c1ccc2c(c1)C(=O)c1c-2n(CCCN=[N+]=[N-])c(=O)c2cc(OC)c(OC)cc12`, the GI50 rises from 0.248 µM to > 100 µM.

Going from `O=C(/C=C/c1ccc[nH]1)c1ccc(-n2ccc(C(F)(F)F)n2)cc1` to `Cc1nc(Nc2cccnc2)sc1C(=O)/C=C/c1ccc(F)cc1`, the GI50 falls from > 100 µM to 3.48 µM.

First: O=C(c1ccco1)c1c(C(F)(F)F)nc2ccc(Cl)cc2[n+]1[O-]
Second: O=c1oc2ccc(-c3ccc(F)cc3F)cc2c(=O)n1-c1cccc(C(F)(F)F)c1
The GI50 of the first is higher: > 100 µM for the first, 2.79 µM for the second.

`COc1ccc(-c2nnc3n(C)c(=O)c4ccccc4n23)cc1N` and `COc1ccc2nc3ccccc3c(NCc3ccc(F)cc3)c2c1` are within 1.5-fold of each other in GI50: 3.09 µM for the first, 2.09 µM for the second.

Going from `COc1cc(N=Nc2ccc(O)c3ncccc23)c2ncccc2c1` to `CCOC(=O)Nc1cc2c(c(N)n1)N=C(c1ccccc1)CO2`, the GI50 falls from 4.06 µM to 0.194 µM (21-fold).

Compared with `CCn1c(O)c(/C=N/NC(=O)C(C)c2ccc(CC(C)C)cc2)sc1=S` (configuration not stated), `O=c1c(F)cn(Cc2ccc(C34CC5CC(CC(C5)C3)C4)c(O)c2)c(=O)n1Cc1ccc(C23CC4CC(CC(C4)C2)C3)c(O)c1` is 24-fold higher in GI50: 0.365 µM for the first, 8.59 µM for the second.

Compound `N=c1c2c(-c3ccccc3)c(-c3ccccc3)n(Cc3ccccc3)c2ncn1C1CCC(O)CC1` (configuration not stated) has a GI50 of 0.351 µM.

Compared with `CC1(C)OC2C(CO[Si](C)(C)C(C)(C)C)OC(n3c(I)c(C#C[Si](C)(C)C)c(=O)[nH]c3=O)C2O1` (configuration not stated), `C[C@@H]1C[C@@H]([C@@H](CC2CC(=O)NC(=O)C2)OC(=O)CC(=O)c2ccccc2)C(=O)[C@@H](C)C1` is higher in TGI: 25.6 µM for the first, > 33.3 µM for the second.

Compared with `CN(C)CC[C@H](CSc1ccccc1)Nc1ccc(S(=O)(=O)NC(=O)c2ccc(N3CCN(Cc4ccccc4-c4ccc(Cl)cc4)CC3)cc2)cc1[N+](=O)[O-]`, `CN(C)C1CCN(C(=O)c2ccc(NC(=O)Nc3ccc(-c4nc(N5CCOCC5)c5cccn5n4)cc3)cc2)CC1` is lower in TGI: > 100 µM for the first, 12.6 µM for the second.

Going from `COc1ccc(-c2ccc(=O)oc2C#Cc2cc(OC)c(OC)c(OC)c2)cc1O` to `COC(=O)c1ccc2c(c1)C(=O)c1c-2n(CCCN=[N+]=[N-])c(=O)c2cc(OC)c(OC)cc12`, the TGI rises from 1.54 µM to > 100 µM.

Compared with `O=C(/C=C/c1ccc[nH]1)c1ccc(-n2ccc(C(F)(F)F)n2)cc1`, `Cc1nc(Nc2cccnc2)sc1C(=O)/C=C/c1ccc(F)cc1` is lower in TGI: > 100 µM for the first, 14.8 µM for the second.

Compared with `O=C(c1ccco1)c1c(C(F)(F)F)nc2ccc(Cl)cc2[n+]1[O-]`, `O=c1oc2ccc(-c3ccc(F)cc3F)cc2c(=O)n1-c1cccc(C(F)(F)F)c1` is lower in TGI: > 100 µM for the first, 16.4 µM for the second.

Going from `COc1ccc(-c2nnc3n(C)c(=O)c4ccccc4n23)cc1N` to `COc1ccc2nc3ccccc3c(NCc3ccc(F)cc3)c2c1`, the TGI falls from > 100 µM to 7.04 µM.

First: COc1cc(N=Nc2ccc(O)c3ncccc23)c2ncccc2c1
Second: CCOC(=O)Nc1cc2c(c(N)n1)N=C(c1ccccc1)CO2
The TGI of the first is higher: > 100 µM for the first, 1.44 µM for the second.

`CCn1c(O)c(/C=N/NC(=O)C(C)c2ccc(CC(C)C)cc2)sc1=S` (configuration not stated) and `O=c1c(F)cn(Cc2ccc(C34CC5CC(CC(C5)C3)C4)c(O)c2)c(=O)n1Cc1ccc(C23CC4CC(CC(C4)C2)C3)c(O)c1` cannot be ordered by TGI: > 22.1 µM for the first, 22.9 µM for the second.

First: N=c1c2c(-c3ccccc3)c(-c3ccccc3)n(Cc3ccccc3)c2ncn1C1CCC(O)CC1 (configuration not stated)
Second: CC1CC2CCCC(O)=C2C(=O)O1 (configuration not stated)
The TGI of the first is lower: 15.3 µM for the first, > 100 µM for the second.
